From the CheMixHub viscosity set
Several values for one entry are separate records, joined by “and”; a condition that tells them apart may be missing. Equal values may be shown once.

Test: xn = mol fraction of the nth substance listed

O=C(O)CCl + CC(C)=O
viscosity [mPa·s], 101 kPa
Settings	x1 = 0.1359	x1 = 0.1855	x1 = 0.2889	x1 = 0.3789	x1 = 0.4791	x1 = 0.6971	x1 = 0.8145
298.15 K	0.4351	0.5339	0.7329	0.9727	1.345	–	–
308.15 K	0.394	0.4777	0.6435	0.8439	1.131	2.166	–
323.15 K	0.3409	0.4134	0.5393	0.6876	0.9042	1.6	2.123

ClC(Cl)Cl + CS(C)=O
viscosity [mPa·s], 101.33 kPa
Settings	x2 = 0.0955	x2 = 0.2039	x2 = 0.3021	x2 = 0.4068	x2 = 0.5023	x2 = 0.6044	x2 = 0.7038	x2 = 0.8047	x2 = 0.9014
298.15 K	0.642	0.839	1.018	1.227	1.365	1.498	1.611	1.729	1.842
308.15 K	0.576	0.738	0.882	1.057	1.171	1.276	1.366	1.458	1.545
318.15 K	0.527	0.682	0.8	0.915	1.011	1.097	1.171	1.246	1.309

ClC(Cl)Cl + CCCCCCCCCCO
viscosity [mPa·s], 101 kPa
Settings	303.15 K	313.15 K
x1 = 0.0523	8.774	6.174
x1 = 0.1025	7.938	5.59
x1 = 0.1519	7.108	5.068
x1 = 0.1992	6.311	4.603
x1 = 0.2501	5.65	4.121
x1 = 0.2992	5.021	3.726
x1 = 0.3497	4.374	3.291
x1 = 0.4005	3.838	2.935
x1 = 0.451	3.293	2.571
x1 = 0.5	2.873	2.259
x1 = 0.5504	2.439	1.974
x1 = 0.5991	2.098	1.697
x1 = 0.6496	1.778	1.48
x1 = 0.699	1.501	1.251
x1 = 0.7508	1.277	1.076
x1 = 0.799	1.052	0.911
x1 = 0.8513	0.916	0.77
x1 = 0.8999	0.784	0.661
x1 = 0.9501	0.651	0.561

ClC(Cl)Cl + C1CCCCC1
298.15 K, 101 kPa
Settings	viscosity [mPa·s]
x1 = 0.2026	0.7795
x1 = 0.3543	0.6917
x1 = 0.4317	0.665
x1 = 0.5593	0.6217
x1 = 0.6464	0.6057
x1 = 0.7738	0.5875
x1 = 0.886	0.5657

ClC(Cl)Cl + CC(C)OC(C)C
298.15 K, 101 kPa
Settings	viscosity
x1 = 0.07	0.325 mPa·s
x1 = 0.12	0.35 mPa·s
x1 = 0.13	0.353 mPa·s
x1 = 0.16	0.369 mPa·s
x1 = 0.21	0.39 mPa·s
x1 = 0.26	0.413 mPa·s
x1 = 0.31	0.437 mPa·s
x1 = 0.35	0.458 mPa·s
x1 = 0.4	0.484 mPa·s
x1 = 0.46	0.507 mPa·s
x1 = 0.5	0.523 mPa·s
x1 = 0.55	0.543 mPa·s
x1 = 0.6	0.553 mPa·s
x1 = 0.65	0.565 mPa·s
x1 = 0.71	0.572 mPa·s
x1 = 0.76	0.577 mPa·s
x1 = 0.8	0.579 mPa·s
x1 = 0.85	0.581 mPa·s
x1 = 0.9	0.58 mPa·s
x1 = 0.95	0.579 mPa·s and 0.58 mPa·s

O=[N+]([O-])[O-].[Na+] + N
293.15 K, 101 kPa
Settings	viscosity [mPa·s]
x1 = 0.02	0.182
x1 = 0.039	0.225
x1 = 0.081	0.374

O=C(O)CCl + Oc1ccccc1
323.15 K, 101 kPa
Settings	viscosity [mPa·s]
x2 = 0.1128	3.125
x2 = 0.1918	3.113
x2 = 0.26	3.103
x2 = 0.3059	3.112
x2 = 0.405	3.121
x2 = 0.5113	3.142
x2 = 0.606	3.203
x2 = 0.6735	3.242
x2 = 0.7037	3.277
x2 = 0.7567	3.308
x2 = 0.8216	3.338
x2 = 0.903	3.353

FC(F)Cl + CC(F)F
viscosity [mPa·s], 101 kPa
Settings	293.35 K	293.45 K	312.95 K	313.25 K
x1 = 0.159	–	0.178	0.1422	–
x1 = 0.34	–	0.1749	–	0.1424
x1 = 0.534	0.1805	–	–	0.1485

ClC(Cl)Cl + CCCCn1cc[n+](C)c1.F[B-](F)(F)F
298.15 K, 101 kPa
Settings	viscosity [mPa·s]
x1 = 0.1079	92.5
x1 = 0.2033	73.3
x1 = 0.7028	9.24

ClC(Cl)Cl + CCCCCC
viscosity [mPa·s], 101 kPa
Settings	x2 = 0.098	x2 = 0.202	x2 = 0.2873	x2 = 0.4056	x2 = 0.5009	x2 = 0.5885	x2 = 0.7253	x2 = 0.8116	x2 = 0.9008
293.15 K	0.5269	0.4839	0.4558	0.42	0.3965	0.3762	0.3509	0.3368	0.3242
298.15 K	0.5028	0.4606	0.434	0.3996	0.3781	0.3582	0.3341	0.3206	0.309
303.15 K	0.4779	0.4396	0.4142	0.3811	0.3628	0.3413	0.3186	0.3056	0.2945
313.15 K	0.4362	0.3998	0.3783	0.3472	0.3308	0.311	0.2912	0.2786	0.2683

CCCCCCCCCC(=O)OC + CCCO
viscosity [mPa·s], 100 kPa
Settings	x1 = 0.0999	x1 = 0.1999	x1 = 0.2999	x1 = 0.3995	x1 = 0.4995	x1 = 0.599	x1 = 0.6999	x1 = 0.8002	x1 = 0.8976
298.15 K	1.745	1.671	1.648	1.652	1.676	1.702	1.746	1.788	1.859
303.15 K	1.566	1.506	1.487	1.495	1.515	1.547	1.583	1.622	1.692
308.15 K	1.408	1.361	1.35	1.36	1.38	1.413	1.442	1.482	1.546
313.15 K	1.271	1.236	1.228	1.241	1.262	1.295	1.325	1.36	1.418
318.15 K	1.151	1.124	1.124	1.136	1.161	1.19	1.216	1.252	1.304
323.15 K	1.045	1.027	1.031	1.045	1.067	1.097	1.126	1.158	1.207
